The values that follow come from the supplement of paper PMC11208160.

This data set can be described thus: recombinant UMI read abundance after kanamycin selection (control-corrected) (log10(CPM+1)); higher = more efficient recombination; extreme values may be limits of the assay; sequences stand for … in AGTGCAGAGAAAATCGGCCAGTTTTCTCTGCCTGCAGTCCGCATGCCGTGGGACCCCTTGGGTTCTAACCTGTTGCCTAGATTTATGCAGCGGACTGCCTTTCTCCCAAAGTGATAAACCGG…AGGTTGGTTTCACT; site = the 11-nt donor. The essentials:
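Two replicates each of selected and unselected plating were used in this pooled Escherichia coli screen of donor and donor-binding-loop pairs for the IS621 bridge recombinase. Selection was with IPTG (0.07 mM) and kanamycin. Counts of recombinant UMIs, amplified across the donor–target junction, were converted to CPM, averaged, scaled by control-derived factors and reported as log10(CPM+1).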
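Note: IS621 bridge recombinase in Escherichia coli cells against a fixed T5 target plasmid.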

“CAATCGACATGGACCGGTTTTCCCGGTAATCCGTATTTGTT (site CAATCGACTAA)”: the “recombinant UMI read abundance (log10)” value worked out at 0.347.
For “CAATCGACATGGACCGGTTTTCCCGGTAATCCGTATTTGTT (site CCATCGACTAA)”, the “recombinant UMI read abundance (log10)” value turned out to be 0.0214.
For “CAATCGACATGGACCGGTTTTCCCGGTAATCCGTATTTGTT (site CGATCGACTAA)” the value was 0.0271; for “CAATCGACATGGACCGGTTTTCCCGGTAATCCGTATTTGTT (site CTATCGACTAA)”, 0.0699.
“CAATGCTCATGGACCGGTTTTCCCGGTAATCCGTATTTGAA (site AAATGCTCTTT)”: the “recombinant UMI read abundance (log10)” value worked out at 0.129.
For “CAATGCTCATGGACCGGTTTTCCCGGTAATCCGTATTTGAA (site CAAAGCTCTTT)” the value was 0.393; for “CAATGCTCATGGACCGGTTTTCCCGGTAATCCGTATTTGAA (site CAACGCTCTTT)”, 1.58; for “CAATGCTCATGGACCGGTTTTCCCGGTAATCCGTATTTGAA (site CAAGGCTCTTT)”, 0.0098.
Then “CAATGCTCATGGACCGGTTTTCCCGGTAATCCGTATTTGAA (site CAATACTCTTT)”, with 1.94; and “CAATGCTCATGGACCGGTTTTCCCGGTAATCCGTATTTGAA (site CAATCCTCTTT)”, with 0.0831; and “CAATGCTCATGGACCGGTTTTCCCGGTAATCCGTATTTGAA (site CAATGATCTTT)”, with 0.389.
For “CAATGCTCATGGACCGGTTTTCCCGGTAATCCGTATTTGAA (site CAATGCACTTT)” the value was 0.182; for “CAATGCTCATGGACCGGTTTTCCCGGTAATCCGTATTTGAA (site CAATGCCCTTT)”, 1.25.
As to “CAATGCTCATGGACCGGTTTTCCCGGTAATCCGTATTTGAA (site CAATGCGCTTT)”, the “recombinant UMI read abundance (log10)” value worked out at 0.0142.
For “CAATGCTCATGGACCGGTTTTCCCGGTAATCCGTATTTGAA (site CAATGCTCTAT)”, the “recombinant UMI read abundance (log10)” value came to 1.03.
For “CAATGCTCATGGACCGGTTTTCCCGGTAATCCGTATTTGAA (site CAATGCTCTCT)” the value was 0.924; for “CAATGCTCATGGACCGGTTTTCCCGGTAATCCGTATTTGAA (site CAATGCTCTGT)”, 0.818.
Then “CAATGCTCATGGACCGGTTTTCCCGGTAATCCGTATTTGAA (site CAATGCTCTTA)”, with 0.908; and “CAATGCTCATGGACCGGTTTTCCCGGTAATCCGTATTTGAA (site CAATGCTCTTC)”, with 0.687; and “CAATGCTCATGGACCGGTTTTCCCGGTAATCCGTATTTGAA (site CAATGCTCTTG)”, with 0.554.
For “CAATGCTCATGGACCGGTTTTCCCGGTAATCCGTATTTGAA (site CAATGCTCTTT)” the value was 2.57.
For the sequence “CAATGCTCATGGACCGGTTTTCCCGGTAATCCGTATTTGAA (site CAATGGTCTTT)”, the “recombinant UMI read abundance (log10)” value is 0.0124.
Regarding “CAATGCTCATGGACCGGTTTTCCCGGTAATCCGTATTTGAA (site CAATGTTCTTT)”, the “recombinant UMI read abundance (log10)” value was 0.
For “CAATGCTCATGGACCGGTTTTCCCGGTAATCCGTATTTGAA (site CAATTCTCTTT)”, the “recombinant UMI read abundance (log10)” value turned out to be 0.
For “CAATGCTCATGGACCGGTTTTCCCGGTAATCCGTATTTGAA (site CACTGCTCTTT)” the value was 0.0585; for “CAATGCTCATGGACCGGTTTTCCCGGTAATCCGTATTTGAA (site CAGTGCTCTTT)”, 0.102.
Consider “CAATGCTCATGGACCGGTTTTCCCGGTAATCCGTATTTGAA (site CATTGCTCTTT)”, for which the “recombinant UMI read abundance (log10)” value came to 0.408.
As for “CAATGCTCATGGACCGGTTTTCCCGGTAATCCGTATTTGAA (site CCATGCTCTTT)”, the “recombinant UMI read abundance (log10)” value came to 0.461.
For “CAATGCTCATGGACCGGTTTTCCCGGTAATCCGTATTTGAA (site CGATGCTCTTT)” the value was 0.0125.
